Assay results reported in patent publication US12187755B2, “Minimal saponin analogues, synthesis and use thereof” (MEMORIAL SLOAN-KETTERING CANCER CENTER, priority 2014, dated 2025).
“Also recorded” adds a separate entry of the source.

Key:
[1] = in vivo; cited from earlier work
[2] = in vivo fluorescence imaging with fluorescein-labeled saponin and OVA-A647; parameters: species or system mouse; settings: 24 h post-injection
Procedure: To address this problem, in vivo fluorescence imaging experiments with fluorescein-labeled active adjuvant 3 (SQS-0-0-5-12) and Alexa-647-conjugated OVA (OVA-A647) were conducted.
Whole-body imaging was performed at 24 h post-injection with a Maestro Imaging System. At 24 h post-injection, mice were sacrificed and the left and right lymph nodes were dissected and imaged separately.

C57BL/6J mice [3] = assay: preclinical mouse vaccination model, three-component vaccine (MUC1-KLH, OVA), antibody titers by ELISA; format: in vivo; settings: for antibody titers (anti-KLH, anti-MUC1, anti-OVA IgG): three-component vaccine MUC1-KLH + OVA, s.c. days 0, 7, 14, booster day 65, sera day 72
Procedure: A radioiodine (^131I) was introduced into the QS-21 saponin scaffold to enable in vivo biodistribution studies. The non-radiolabeled aryl iodide 6 (SQS-0-0-5-18) by acylation of amine 2 (SQS-0-0-5-11) was synthesized (FIG. 1B). Because no in vitro model exists to assess adjuvant activity, biological evaluation of aryl iodide 6 was carried out in a preclinical mouse vaccination model involving a multi-antigen formulation comprised of the immunogenic peptide MUC1 (prostate and breast cancer antigen, non-glycosylated tandem repeat) conjugated to the highly immunogenic KLH carrier protein (MUC1-KLH) and OVA, a reliable immunogen that induces both antibody and T-cell responses in mice. Antibody responses against each of the three antigens, co-administered with the adjuvant of interest, were determined by ELISA.
(§1) Groups of five mice (C57BL/6J, female, 6-8 weeks of age) were vaccinated with a three-component vaccine consisting of MUC1-KLH ([…]) and OVA ([…]), or a four-component vaccine that also included GD3-KLH ([…]). Antigens were co-administered with the adjuvant of interest ([…]) or without adjuvant (no-adjuvant control) in phosphate buffered saline (PBS, […]) via subcutaneous injections on days 0, 7, and 14, followed by a booster on day 65. Mouse sera were collected at day 72 and antibody titers against each antigen were determined by ELISA. Statistical significance of each antibody response compared to the no-adjuvant control was assessed using a two-tailed unpaired Student's t-test with CI=95%. As an initial, general assessment of toxicity, mouse weight loss was monitored on days 0, 1, 2, 3, and 7 after the first vaccination. These animal experiments were conducted as described in MSKCC Institutional Animal Care and Use Committee (IACUC) protocol #97-11-051.

[4] = in vivo biodistribution of radioiodinated saponins; parameters: species or system mouse; settings: with OVA, 24-96 h
Procedure: The aryl tin saponins (7, 9, 17, S9) were synthesized from the corresponding amine precursors (2, S4, 15, S8) by acylation with N-succinimidyl-4-(trimethylstannyl)benzoate 4 (Et3N, DMF, 21° C., 1-2.5 h). Radiolabeling was achieved by iodination of the aryl tin saponin (20 μg) with [^131I]—NaI and chloramine-T (methanol, 21° C., 1 min), followed by immediate HPLC purification. Solvents were removed by rotary evaporation at 35° C. and the radioiodinated probes were formulated in 0.9% saline for biodistribution studies. Co-elution of the radioiodinated probes with the corresponding cold saponins was used for quality control analysis.
Groups of five mice (naive, C57BL/6J female, 8-10 weeks of age) were injected subcutaneously with the radioiodinated saponin adjuvants of interest (˜[…]), the corresponding non-radiolabeled saponin ([…]), and OVA ([…]) in PBS ([…]). Mice were sacrificed at 24 h, 72 h, and 96 h post-injection. Tissues and organs were harvested and analyzed for distribution of radioactivity normalized to the weight of the organ (% ID/g, percent injected dose per gram). Statistical significance of the difference in recoveries (% ID/g) for the active and attenuated adjuvant was assessed for each tissue or organ using two-tailed unpaired Student's t-test with CI=95%.

[5] = toxicity assessment by mouse weight loss after first vaccination; format: in vivo; settings: for toxicity assessed by mouse weight loss: three-component vaccine, median percent weight loss
Procedure: as §1

mice = assay: mouse vaccination with OVA antigen alone (FIG. 7B); format: in vivo; settings: OVA (20 μg)
Procedure: FIG. 7A: Synthesis of negative control saponin 8 (SQS-0-3-7-18): (i) SOCl2, pyridine, CH2Cl2/DMF, 21° C., 2 h, 91%; (ii) 1. H2 (50 psi), Pd/C (Degussa), THF/EtOH (1:1), 21° C., 24 h; 2. TFA/H2O (4:1), 0° C., 3.3 h, RP-HPLC, 50% (2 steps); (iii) 4, Et3N, DMF, 21° C., 3 h, RP-HPLC, 68%; (iv) 5, Et3N, DMF, 21° C., 2.5 h, RP-HPLC, 53%. FIG. 7B: Biological evaluation of aryl iodide saponin 8 with OVA antigen. Mice were vaccinated with OVA (20 μg) according to the general procedure discussed herein. Median titers represented as red horizontal bars. Statistical significance compared to SQS-21 was assessed using two-tailed unpaired Student's t-test with CI=95%: *=0.01≤p≤0.05 (significant).
Groups of five mice (C57BL/6J, female, 6-8 weeks of age) were vaccinated with a three-component vaccine consisting of MUC1-KLH ([…]) and OVA ([…]), or a four-component vaccine that also included GD3-KLH (5 mg). […] Mouse sera were collected at day 72 and antibody titers against each antigen were determined by ELISA. Statistical significance of each antibody response compared to the no-adjuvant control was assessed using a two-tailed unpaired Student's t-test with CI=95%. As an initial, general assessment of toxicity, mouse weight loss was monitored on days 0, 1, 2, 3, and 7 after the first vaccination. […]

C57BL/6J mice [6] = assay: preclinical mouse vaccination model, four-component vaccine (MUC1-KLH, OVA, GD3-KLH), antibody titers by ELISA; format: in vivo; settings: 20 and 50 μg doses
Procedure: as §1
These saponin variants were evaluated with a four-component vaccine comprised of MUC1-KLH, OVA, and the poorly immunogenic glycolipid GD3 (melanoma, neuroblastoma, sarcoma antigen) conjugated to KLH (GD3-KLH) (FIGS. 5B-E; see FIG. 16 for full data with both 20 and 50 μg doses).

C57BL/6J mice [7] = assay: antibody subtyping of anti-MUC1 and anti-OVA IgG by class-specific ELISA; format: in vivo, mouse
Source text: Production of other mouse IgG subtypes, including IgG2a and IgG3, was low or negligible, as indicated by class-specific ELISA. Toxicity remained drastically lower for all four variants compared to NQS-21 and SQS-21 (FIG. 5f).

[8] = biodistribution of radioiodinated ovalbumin with and without adjuvant 6; format: in vivo, mouse; settings: presence and absence of active adjuvant 6
Procedure: In a complementary experiment, the biodistribution of [^131I]-OVA in the presence and absence of active adjuvant 6 was examined (FIG. 10). […] Thus, the influence of 6 upon OVA antigen biodistribution could not be assessed effectively and an alternative experimental approach was required.
Radiolabeled ovalbumin was synthesized by treating 20 μg of ovalbumin with [^131I]—NaI and Chloramine-T in methanol. The reaction mixture was diluted with 2 mL phosphate buffered saline (PBS) followed by centrifugal filtration at 2800 rpm for 12 min using a 30 kDa molecular weight cutoff filter. This process was repeated twice and the concentrated compound was then formulated in 1 mL 0.9% saline for biodistribution studies.

C[C@H]1O[C@@H](OC2C(O)C(NC(=O)CCCCCN)[C@H](CO)O[C@H]2OC(=O)C23CCC(C)(C)CC2C2=CCC4C5(C)CC[C@H](OC6OC(C(=O)O)[C@@H](O)[C@H](OC7OC[C@@H](O)[C@H](O)[C@@H]7O)[C@@H]6O[C@@H]6OC(CO)C(O)[C@@H](O)[C@@H]6O)[C@](C)(C=O)[C@@H]5CC[C@]4(C)[C@]2(C)C[C@@H]3O)C(O)C(O)C1O[C@@H]1OCC(O)C(O)C1O (stereo partly shown) [compound 2]
adjuvant activity [1]: inactive
OVA-A647 at the site of injection when co-injected with the adjuvant [2]: observed at the site of injection
OVA-A647 localization to the nearest draining lymph nodes when co-injected with the adjuvant ([2]; dissected lymph nodes): increased accumulation of OVA-A647 with 3 but not 2

C[C@H]1O[C@@H](OC2C(O)C(NC(=O)CCCCCNC(=O)c3ccc(I)cc3)[C@H](CO)O[C@H]2OC(=O)C23CCC(C)(C)CC2C2=CCC4C5(C)CC[C@H](OC6OC(C(=O)O)[C@@H](O)[C@H](OC7OC[C@@H](O)[C@H](O)[C@@H]7O)[C@@H]6O[C@@H]6OC(CO)C(O)[C@@H](O)[C@@H]6O)[C@](C)(C=O)[C@@H]5CC[C@]4(C)[C@]2(C)C[C@@H]3O)C(O)C(O)C1O[C@@H]1OCC(O)C(O)C1O (stereo partly shown) [compound 6]
antibody titers (anti-KLH, anti-MUC1, anti-OVA IgG) (C57BL/6J mice [3]): antibody titers comparable to both NQS-21
localization and retention at injection site and lymph nodes (conclusion) [4]: localizes to and is retained at the injection site and lymph nodes
toxicity assessed by mouse weight loss [5]: reduced toxicity compared to QS-21

CC1(C)CCC2(C(=O)NCCNC(=O)c3ccc(I)cc3)C(C1)C1=CCC3C4(C)CC[C@H](OC5OC(C(=O)O)[C@@H](O)[C@H](OC6OC[C@@H](O)[C@H](O)[C@@H]6O)[C@@H]5OC5OC(CO)[C@H](O)[C@H](O)[C@@H]5O)[C@](C)(C=O)[C@@H]4CC[C@]3(C)[C@]1(C)C[C@@H]2O (stereo partly shown) [compound 8]
adjuvant activity with OVA antigen (mice): poor adjuvant activity

C[C@@H]1O[C@@H](O[C@H]2[C@H](OC(=O)[C@]34CCC(C)(C)C[C@H]3C3=CC[C@@H]5[C@@]6(C)CC[C@H](O)[C@@](C)(C=O)[C@@H]6CC[C@@]5(C)[C@]3(C)C[C@H]4O)O[C@H](CO)[C@H](NC(=O)CCCCCNC(=O)c3ccc(I)cc3)[C@@H]2O)[C@H](O)[C@H](O)[C@H]1O[C@@H]1OC[C@@H](O)[C@H](O)[C@H]1O [compound 16]
KLH and MUC1 antibody responses (C57BL/6J mice [3]; three-component vaccine, exception anti-MUC1 titers at lower dose (20 μg)): comparable to those of parent aryl iodide 6, NQS-21, and SQS-21
toxicity assessed by mouse weight loss [5]: much lower toxicity than NQS-21 and SQS-21

C[C@H]1O[C@@H](OC2C(O)C(NC(=O)CCCCCNC(=O)c3ccc(I)cc3)[C@H](CO)O[C@H]2OC(=O)[C@]23CCC(C)(C)CC2C2=CCC4C5(C)CC[C@H](O)C(C)(C)[C@@H]5CC[C@]4(C)[C@]2(C)CC3)C(O)C(O)C1O[C@@H]1OCC(O)C(O)C1O (stereo partly shown) [compound 18]
antibody titers (anti-KLH, anti-MUC1, anti-OVA IgG) (C57BL/6J mice [3]): lower antibody titers against all three antigens compared to the parent quillaic acid derivative 16
toxicity assessed by mouse weight loss [5]: low toxicity

C[C@H]1O[C@@H](OC2C(O)C(NC(=O)CCCCCNC(=O)c3ccc(I)cc3)[C@H](CO)O[C@H]2OC(=O)[C@]23CCC(C)(C)CC2C2=CCC4C5(C)CC[C@H](O)[C@](C)(CO)[C@@H]5CC[C@]4(C)[C@]2(C)CC3O)C(O)C(O)C1O[C@@H]1OCC(O)C(O)C1O (stereo partly shown) [compound 19]
antibody responses (anti-KLH, anti-MUC1, anti-OVA IgG, anti-GD3 IgM and IgG) (C57BL/6J mice [6]): antibody titers slightly below those of echinocystic acid derivative 20; also recorded: antibody responses similar to the complete, branched trisaccharide-containing saponin 6
IgG subtypes of anti-MUC1 and anti-OVA antibodies (C57BL/6J mice [7]): significant bias toward the mouse IgG1 and IgG2b subtype

C[C@H]1O[C@@H](OC2C(O)C(NC(=O)CCCCCNC(=O)c3ccc(I)cc3)[C@H](CO)O[C@H]2OC(=O)C23CCC(C)(C)CC2C2=CCC4C5(C)CC[C@H](O)C(C)(C)[C@@H]5CC[C@]4(C)[C@]2(C)C[C@@H]3O)C(O)C(O)C1O[C@@H]1OCC(O)C(O)C1O (stereo partly shown) [compound 20]
antibody responses (anti-KLH, anti-MUC1, anti-OVA IgG, anti-GD3 IgM and IgG) (C57BL/6J mice [6]): highest antibody responses to all four antigens; also recorded: immunostimulatory activity generally rivaling that of SQS-21
IgG subtypes of anti-MUC1 and anti-OVA antibodies (C57BL/6J mice [7]): significant bias toward the mouse IgG1 and IgG2b subtype
toxicity (mouse weight loss) ([5]; four-component vaccine, one week after first injection): dramatically reduced toxicity compared to the natural product

C[C@H]1O[C@@H](OC2C(O)C(NC(=O)CCCCCNC(=O)c3ccc(I)cc3)[C@H](CO)O[C@H]2OC(=O)C23CCC(C)(C)CC2C2=CCC4C5(C)CC[C@H](O)[C@](C)(C=O)[C@@H]5CC[C@]4(C)[C@]2(C)CC3)C(O)C(O)C1O[C@@H]1OCC(O)C(O)C1O (stereo partly shown) [compound 21]
antibody responses (anti-KLH, anti-MUC1, anti-OVA IgG, anti-GD3 IgM and IgG) (C57BL/6J mice [6]): lower antibody responses in all cases except the anti-GD3 IgG response

C[C@@H]1O[C@@H](O[C@H]2[C@H](OC(=O)[C@]34CCC(C)(C)C[C@H]3C3=CC[C@@H]5[C@@]6(C)CC[C@H](O)[C@@](C)(CO)[C@@H]6CC[C@@]5(C)[C@]3(C)CC4)O[C@H](CO)[C@H](NC(=O)CCCCCNC(=O)c3ccc(I)cc3)[C@@H]2O)[C@H](O)[C@H](O)[C@H]1O[C@@H]1OC[C@@H](O)[C@H](O)[C@H]1O [compound 22]
antibody responses (anti-KLH, anti-MUC1, anti-OVA IgG, anti-GD3 IgM and IgG) (C57BL/6J mice [6]): lower antibody responses in all cases except the anti-GD3 IgG response

B1: [131I]-OVA: radioiodinated ovalbumin antigen (protein, UniProt P01012 2-386, looked up)
Ovalbumin: GSIGAASMEFCFDVFKELKVHHANENIFYCPIAIMSALAMVYLGAKDSTRTQINKVVRFDKLPGFGDSIEAQCGTSVNVHSSLRDILNQITKPNDVYSFSLASRLYAEERYPILPEYLQCVKELYRGGLEPINFQTAADQARELINSWVESQTNGIIRNVLQPSSVDSQTAMVLVNAIVFKGLWEKAFKDEDTQAMPFRVTEQESKPVQMMYQIGLFRVASMASEKMKILELPFASGTMSMLVLLPDEVSGLEQLESIINFEKLTEWTSSNVMEERKIKVYLPRMKMEEKYNLTSVLMAMGITDVFSSSANLSGISSAESLKISQAVHAAHAEINEAGREVVGSAEAGVDAASVSEEFRADHPFLFCIKHIATNAVLFFGRCVSP
modifications: 131I radiolabel
notes: radioiodinated ovalbumin antigen
thyroid uptake of [131I]-OVA [8]: thyroid uptake was also high
